Laboratory results taken from US10124065B2, “Lipids and lipid compositions for the delivery of active agents” (Novartis AG, priority 2013, dated 2018).
Several values for one entry are separate records, joined by “and”; a condition that tells them apart may be missing. Equal values may be shown once.

How the values were obtained:
[1] = test system: respiratory syncytial virus F protein; experiment: Immunization studies, anti-RSV-F titers; assay type: in vivo; settings: anti-RSV-F titer, BALB/c, liposomes with 0.1 μg vA317 replicon (naked: 1 μg); for 4wp2 pool 1 / 4wp2 pool 2: 4 weeks after second dose; for 2wp1 pool 1 / 2wp1 pool 2: 2 weeks after first dose; for 2wp2 pool 1 / 2wp2 pool 2: 2 weeks after second dose
Method: BALB/c were immunized with liposomes comprising DSPC, cholesterol, and various lipids of the invention (or, for comparison, the cationic lipid 1,2-dilinoleyloxy-N,N-dimethyl-3-aminopropane or ‘DLinDMA’). The liposomes encapsulated 0.1 μg of “vA317” self-replicating RNA replicon which encodes respiratory syncytial virus F protein (see WO2012/031043). […] Doses were given either on days 0 & 21 or days 0 & 42. Immune responses were assessed 2 weeks after each dose (2wp1, 2wp2), and in some cases also at 4 weeks after the second dose (4wp2).

[2] = test system: plasma Factor VII enzyme activity; experiment: Mouse Factor VII dosing / Factor VII Activity Assay; assay type: in vivo; settings: percent knock down of plasma Factor VII activity, CD-1 mice, 48 h; for KD FVII 0.03 mg/kg: single IV dose 0.03 mg/kg; for KD FVII 0.3 mg/kg: single IV dose 0.3 mg/kg
Method: Female CD-1 mice were received from Harlan Labs and maintained on standard lab chow and water ad libitum. The animals weighed approximately 25 grams at time of dosing. Formulated Factor VII siRNA was administered as a single dose intravenously via the lateral tail vein. Approximately 48 hours after injection, the mice were euthanized by CO2 inhalation followed by exsanguination through the vena cava. […] Plasma collected from injected mice was assayed for Factor VII enzyme activity using the Biophen FVII kit from Hyphen Biomedical (catalog number 221304). An assay standard curve was prepared using pooled plasma aliquots from the vehicle control animals. All samples were diluted to fall within the linear range of the standard curve and Factor VII activity relative to control plasma was reported. Lipid nanoparticles comprising lipid compounds of formula (I) and the FVII siRNA duplex sequence listed above were tested in the Factor VII Activity Assay. The results of this assay are given in Table 4 below as a percent knock down of plasma Factor VII enzyme activity at a dose of 0.3 mg/kg and 0.03 mg/kg.

[3] = LNP Chol/DSPC/PEG-DMG 45/44/9/2

SMILES | 4wp2 pool 1 ([1]; course A = days 0 & 21) | 4wp2 pool 2 ([1]; course A = days 0 & 21) | 2wp1 pool 1 ([1]; course A = days 0 & 21) | 2wp1 pool 2 ([1]; course A = days 0 & 21) | 2wp2 pool 1 ([1]; course A = days 0 & 21) | 2wp2 pool 2 ([1]; course A = days 0 & 21) | other results
CCCCC/C=C\C/C=C\CCCCCCCCOCC(CN(C)C)OCCCCCCCC/C=C\C/C=C\CCCCC (stereo not shown) [DLinDMA, 1,2-dilinoleyloxy-N,N-dimethyl-3-aminopropane, reference compound] | 26504 and 50799 | 28008 and 35992 |  |  |  |  | 2wp1 pool 1 ([1]; course B = days 0 & 42): 13; 2wp1 pool 2 ([1]; course B = days 0 & 42): 4; 2wp2 pool 1 ([1]; course B = days 0 & 42): 18290; 2wp2 pool 2 ([1]; course B = days 0 & 42): 5538; 4wp2 pool 1 ([1]; course B = days 0 & 42): 13936; 4wp2 pool 2 ([1]; course B = days 0 & 42): 7020
CCCCCCCC(=O)OCCCCCCCCCCOc1cc(CN(CC)CC)cc(OCCCCCCCCCCOC(=O)CCCCCCC)c1OCCCCCCCCCCOC(=O)CCCCCCC [Ex. 100, ((5-((diethylamino)methyl)benzene-1,2,3-triyl)tris(oxy))tris(decane-10,1-diyl)trioctanoate] |  |  |  |  |  |  | KD FVII 0.03 mg/kg ([2]; LNP Chol/DSPC/S010 45/44/9/2): 26.9%; KD FVII 0.3 mg/kg [2, 3]: 94.0%
CCCCC/C=C\C/C=C\CCCCCCCC(=O)OCCCCOc1cc(CN2CCCC2)cc(OCCCCOC(=O)CCCCCCC/C=C\C/C=C\CCCCC)c1 [Ex. 112, (9Z,9′Z,12Z,12′Z)-((5-(pyrrolidin-1-ylmethyl)-1,3-phenylene)bis(oxy))bis(butane-4,1-diyl)bis(octadeca-9,12-dienoate)] |  |  |  |  |  |  | KD FVII 0.03 mg/kg [2, 3]: 86%
CCCCCCCC/C=C\CCCCCCCCOc1cc(OCCCCCCCC/C=C\CCCCCCCC)cc(C2OCC(CN3CCCC3)O2)c1 (stereo not shown) [Example 9, 1-((2-(3,5-bis((Z)-octadec-9-en-1-yloxy)phenyl)-1,3-dioxolan-4-yl)methyl)pyrrolidine] |  |  | 1832 | 1352 | 29707 | 18788 | 
CCCCCCCC/C=C\CCCCCCCCOc1cc(OCCCCCCCC/C=C\CCCCCCCC)cc(C2OCC(COC(=O)CN(C)C)O2)c1 (stereo not shown) [Example 12, (2-(3,5-bis((Z)-octadec-9-en-1-yloxy)phenyl)-1,3-dioxolan-4-yl)methyl 2-(dimethylamino)acetate] |  |  |  |  |  |  | 2wp1 pool 1 ([1]; course B = days 0 & 42): 88; 2wp1 pool 2 ([1]; course B = days 0 & 42): 128; 2wp2 pool 1 ([1]; course B = days 0 & 42): 4550; 2wp2 pool 2 ([1]; course B = days 0 & 42): 4828; 4wp2 pool 1 ([1]; course B = days 0 & 42): 4787; 4wp2 pool 2 ([1]; course B = days 0 & 42): 3972
CCCCC/C=C\C/C=C\CCCCCCCCOc1cc(COC(=O)CCCN(C)C)cc(OCCCCCCCC/C=C\C/C=C\CCCCC)c1 [Example 13, 3,5-bis((9Z,12Z)-octadeca-9,12-dien-1-yloxy)benzyl 4-(dimethylamino)butanoate] |  |  | 495 | 620 | 7157 | 12316 | 
CCCCC/C=C\C/C=C\CCCCCCCCOc1cc(C(=O)OCCCN(C)C)cc(OCCCCCCCC/C=C\C/C=C\CCCCC)n1 [Example 25, 3-(dimethylamino)propyl 2,6-bis((9Z,12Z)-octadeca-9,12-dien-1-yloxy)isonicotinate] | 2850 | 1767 | 1217 | 1883 | 1611 | 1156 | 
CCCCC/C=C\C/C=C\CCCCCCCC(=O)OCc1cc(COC(=O)CCCCCCC/C=C\C/C=C\CCCCC)cc(COC(=O)CCN(C)C)c1 [Example 29, (9Z,9′Z,12Z,12′Z)-(5-(((3-(dimethylamino)propanoyl)oxy)methyl)-1,3-phenylene)bis(methylene)bis(octadeca-9,12-dienoate)] | 23930 | 37278 | 2101 | 3584 | 12529 | 18669 | 
CCCCCCCCCCCCC(=O)OCc1cc(COC(=O)CCCCCCCCCCCC)cc(CN(C)C)c1 [Example 34, (5-((dimethylamino)methyl)-1,3-phenylene)bis(methylene)ditridecanoate] |  |  |  |  |  |  | KD FVII 0.3 mg/kg [2, 3]: 0%
CCCCC/C=C\C/C=C\CCCCCCCC(=O)OCCOc1cc(CN(C)C)cc(OCCOC(=O)CCCCCCC/C=C\C/C=C\CCCCC)c1 [Example 40, (9Z,9′Z, 12Z, 12′Z)-((5-((dimethylamino)methyl)-1,3-phenylene)bis(oxy))bis(ethane-2,1-diyl)bis(octadeca-9,12-dienoate)] |  |  |  |  |  |  | KD FVII 0.03 mg/kg ([2]; LNP Chol/DSPC/S010 45/44/9/2): 8.2%; KD FVII 0.3 mg/kg [2, 3]: 89.8%
CCCCCCCCCC(=O)OCCCCCCOc1cc(CN(C)C)cc(OCCCCCCOC(=O)CCCCCCCCC)c1 [Example 47, ((5-((dimethylamino)methyl)-1,3-phenylene)bis(oxy))bis(hexane-6,1-diyl)bis(decanoate)] |  |  |  |  |  |  | KD FVII 0.3 mg/kg [2, 3]: 99%
CCCCC/C=C\C/C=C\CCCCCCCC(=O)OCCCCOc1cc(CN(CC)CC)cc(OCCCCOC(=O)CCCCCCC/C=C\C/C=C\CCCCC)c1C [Example 55, (9Z,9′Z,12Z,12′Z)-((5-((diethylamino)methyl)-2-methyl-1,3-phenylene)bis(oxy))bis(butane-4,1-diyl)bis(octadeca-9,12-dienoate)] |  |  |  |  |  |  | KD FVII 0.3 mg/kg [2, 3]: 98.0%
CCCCCCCC/C=C\CCCCCCCC(=O)OCCCCOc1cc(CN(C)C)cc(OCCCCOC(=O)CCCCCCC/C=C\CCCCCCCC)c1 [Example 60, (Z)-((5-((dimethylamino)methyl)-1,3-phenylene)bis(oxy))bis(butane-4,1-diyl)dioleate] |  |  |  |  |  |  | KD FVII 0.03 mg/kg ([2]; LNP Chol/DSPC/S010 45/44/9/2): 49.75%
CCCCC/C=C\C/C=C\CCCCCCCCNC(=O)c1cc(COC(=O)CCCN(C)C)cc(C(=O)NCCCCCCCC/C=C\C/C=C\CCCCC)c1 [Example 66, 3,5-bis((9Z,12Z)-octadeca-9,12-dien-1-ylcarbamoyl)benzyl 4-(dimethylamino)butanoate] | 75 | 75 | 75 | 75 | 75 | 75 | 
CCCCC/C=C\C/C=C\CCCCCCCCOc1cc(COC(=O)OCCCN(C)C)cc(OCCCCCCCC/C=C\C/C=C\CCCCC)c1 [Example 68, 3,5-bis((9Z,12Z)-octadeca-9,12-dien-1-yloxy)benzyl (3-(dimethylamino)propyl) carbonate] | 12963 | 17734 | 1031 | 494 | 11315 | 7800 | 
CCCCC/C=C\C/C=C\CCCCCCCC(=O)OCc1cc(COC(=O)CCCCCCC/C=C\C/C=C\CCCCC)cc(COC(=O)OCCCN(CC)CC)c1 [Example 69, (9Z,9′Z,12Z,12′Z)-(5-((((3-(diethylamino)propoxy)carbonyl)oxy)methyl)-1,3-phenylene)bis(methylene)bis(octadeca-9,12-dienoate)] | 19075 | 21504 | 2853 | 4481 | 23851 | 20793 | 
CCCCC/C=C\C/C=C\CCCCCCCC(=O)OCc1cc(COC(=O)CCCCCCC/C=C\C/C=C\CCCCC)cc(COC(=O)OCCN(C)C)c1 [Example 70, (9Z,9′Z,12Z,12′Z)-(5-((((2-(dimethylamino)ethoxy)carbonyl)oxy)methyl)-1,3-phenylene)bis(methylene)bis(octadeca-9,12-dienoate)] | 18779 | 18358 | 1416 | 3110 | 31550 | 20124 | 
CCCCC/C=C\C/C=C\CCCCCCCCOc1cc(CCCOC(=O)CCN(C)C)cc(OCCCCCCCC/C=C\C/C=C\CCCCC)c1 [Example 81, 3-(3,5-bis((9Z,12Z)-octadeca-9,12-dien-1-yloxy)phenyl)propyl 3-(dimethylamino)propanoate] | 41921 | 34684 | 1779 | 1553 | 24648 | 15304 | 
